Active and inactive are the calls of the source.
Key:
Mu-type opioid receptor = Mu-type opioid receptor (Homo sapiens, UniProt P35372); assay: SAR Analysis of Antagonists of the MOR Receptor using an Image-Based Assay - Set 3. [Related pubchem assays (depositor defined):AID1777, AID1785, AID1786, AID1966, AID2133, AID2136, AID2284, AID2285, AID2420]; type: functional
[1] = molecular target: Delta-type opioid receptor (Homo sapiens, UniProt P41143); assay: SAR Analysis of Antagonists of the DOR Receptor using an Image-Based Assay - Set 3. [Related pubchem assays (depositor defined):AID1777, AID1785]; type: functional;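 note: U2OS cells expressing DOR1 and beta-arrestin GFP stimulated with 100 nM SNC80; imaging of GFP-tagged beta-arrestin moving into spots after receptor activation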
[2] = molecular target: T1, Kappa-type opioid receptor (Homo sapiens, UniProt P41145); assay: SAR analysis of small molecule antagonists of the kappa opioid receptor via a luminescent beta-arrestin assay - Set 3. [Related pubchem assays (depositor defined):AID1777, AID1778, AID1785, AID1786, AID1966, AID2133, AID2136, AID2285, AID2495]; type: functional
[3] = molecular target: T1, Kappa-type opioid receptor; assay: SAR analysis of Antagonists of the Kappa Opioid Receptor (KOR) using an Image-Based Assay - Set 4. [Related pubchem assays (depositor defined):AID1777, AID1785]; type: functional
T-cell = assay: loss of vesicle association with mouse CD8+ T cells – mouse 2C CD8+ T cells, flow cytometry, dose response (AID 485284); type: functional
[4] = molecular target: Glyceraldehyde-3-phosphate dehydrogenase (Homo sapiens, UniProt P04406)
[5] = molecular target: Alkaline phosphatase, placental type (Homo sapiens, UniProt P05187); assay: human placental alkaline phosphatase inhibition – biochemical, luminescence, confirmation (AID 1512); type: functional
[6] = molecular target: T2, Alkaline phosphatase, tissue-nonspecific isozyme (Homo sapiens, UniProt P05186); assay: potency against alkaline phosphatase TNAP – biochemical, luminescent, dose response, SAR follow-up (AID 1056)
T2 sequence (P05186 whole entry): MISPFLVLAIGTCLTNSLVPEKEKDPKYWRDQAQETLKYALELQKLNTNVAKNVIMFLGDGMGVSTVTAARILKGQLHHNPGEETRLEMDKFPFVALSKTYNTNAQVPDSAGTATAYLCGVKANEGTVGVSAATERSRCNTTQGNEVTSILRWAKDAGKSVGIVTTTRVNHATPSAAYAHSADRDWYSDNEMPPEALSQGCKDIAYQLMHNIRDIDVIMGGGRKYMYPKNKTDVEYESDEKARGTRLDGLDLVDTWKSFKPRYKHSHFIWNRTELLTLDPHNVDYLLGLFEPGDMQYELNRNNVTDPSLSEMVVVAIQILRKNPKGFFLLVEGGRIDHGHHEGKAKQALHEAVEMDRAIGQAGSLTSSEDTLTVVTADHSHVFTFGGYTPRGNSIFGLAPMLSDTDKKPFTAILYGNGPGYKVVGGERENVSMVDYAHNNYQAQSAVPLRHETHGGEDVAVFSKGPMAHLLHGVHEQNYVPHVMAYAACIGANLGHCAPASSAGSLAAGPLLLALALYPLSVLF

Coagulation factor XII = molecular target: T3, Coagulation factor XII (Homo sapiens, UniProt P00748); assay: Factor XIIa Dose Response Confirmation from Single Well HTS. [Related pubchem assays (depositor defined):AID701]; type: functional
T3 sequence (P00748 whole entry): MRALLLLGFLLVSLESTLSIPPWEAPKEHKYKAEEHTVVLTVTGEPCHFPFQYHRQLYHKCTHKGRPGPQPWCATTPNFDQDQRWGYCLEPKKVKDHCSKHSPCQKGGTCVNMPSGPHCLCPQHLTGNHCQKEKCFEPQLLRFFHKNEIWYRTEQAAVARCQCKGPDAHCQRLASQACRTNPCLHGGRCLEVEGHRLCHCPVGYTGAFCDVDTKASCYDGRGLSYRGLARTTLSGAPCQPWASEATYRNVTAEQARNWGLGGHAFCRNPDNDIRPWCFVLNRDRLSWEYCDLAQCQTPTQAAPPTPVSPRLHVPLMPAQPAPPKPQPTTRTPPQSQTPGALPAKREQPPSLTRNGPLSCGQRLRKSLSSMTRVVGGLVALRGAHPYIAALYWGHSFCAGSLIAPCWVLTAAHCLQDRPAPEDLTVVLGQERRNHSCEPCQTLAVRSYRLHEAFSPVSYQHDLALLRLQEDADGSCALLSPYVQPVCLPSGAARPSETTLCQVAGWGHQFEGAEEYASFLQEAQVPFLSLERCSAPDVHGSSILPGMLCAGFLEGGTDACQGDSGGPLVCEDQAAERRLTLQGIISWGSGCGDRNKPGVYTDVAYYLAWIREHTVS

T1 sequence (P41145 whole entry): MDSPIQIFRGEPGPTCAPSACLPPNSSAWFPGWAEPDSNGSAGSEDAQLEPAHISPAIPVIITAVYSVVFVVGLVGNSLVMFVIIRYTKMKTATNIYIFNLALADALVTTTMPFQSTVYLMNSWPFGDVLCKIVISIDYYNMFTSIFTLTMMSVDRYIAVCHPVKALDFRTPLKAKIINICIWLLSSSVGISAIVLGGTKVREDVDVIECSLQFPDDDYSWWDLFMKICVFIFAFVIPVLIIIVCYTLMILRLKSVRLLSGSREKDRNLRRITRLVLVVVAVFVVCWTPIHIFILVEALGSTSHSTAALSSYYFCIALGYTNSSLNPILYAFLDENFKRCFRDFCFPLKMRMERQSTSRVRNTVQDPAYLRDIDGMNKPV
Sequence of Mu-type opioid receptor (P35372 whole entry): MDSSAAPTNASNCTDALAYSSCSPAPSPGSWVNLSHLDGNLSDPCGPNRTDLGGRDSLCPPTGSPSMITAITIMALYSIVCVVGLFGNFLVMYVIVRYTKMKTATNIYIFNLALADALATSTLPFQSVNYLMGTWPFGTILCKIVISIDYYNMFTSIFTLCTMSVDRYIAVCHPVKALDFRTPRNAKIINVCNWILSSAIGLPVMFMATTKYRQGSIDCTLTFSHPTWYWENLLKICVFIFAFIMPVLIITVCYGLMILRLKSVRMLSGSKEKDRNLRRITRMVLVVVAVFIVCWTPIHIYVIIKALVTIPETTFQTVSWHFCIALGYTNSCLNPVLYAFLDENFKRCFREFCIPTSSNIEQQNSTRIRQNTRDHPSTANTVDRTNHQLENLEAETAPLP
Sequence of Glyceraldehyde-3-phosphate dehydrogenase (P04406 whole entry): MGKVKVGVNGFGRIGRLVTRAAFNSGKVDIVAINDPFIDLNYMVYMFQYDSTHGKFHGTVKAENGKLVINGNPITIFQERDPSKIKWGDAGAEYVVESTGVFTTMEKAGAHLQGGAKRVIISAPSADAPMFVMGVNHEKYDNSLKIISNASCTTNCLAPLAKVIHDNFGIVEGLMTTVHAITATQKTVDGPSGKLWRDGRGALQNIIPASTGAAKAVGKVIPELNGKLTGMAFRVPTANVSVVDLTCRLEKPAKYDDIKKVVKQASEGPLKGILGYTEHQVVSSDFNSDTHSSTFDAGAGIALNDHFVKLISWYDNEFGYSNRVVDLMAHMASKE
Sequence of Alkaline phosphatase, placental type (P05187 whole entry): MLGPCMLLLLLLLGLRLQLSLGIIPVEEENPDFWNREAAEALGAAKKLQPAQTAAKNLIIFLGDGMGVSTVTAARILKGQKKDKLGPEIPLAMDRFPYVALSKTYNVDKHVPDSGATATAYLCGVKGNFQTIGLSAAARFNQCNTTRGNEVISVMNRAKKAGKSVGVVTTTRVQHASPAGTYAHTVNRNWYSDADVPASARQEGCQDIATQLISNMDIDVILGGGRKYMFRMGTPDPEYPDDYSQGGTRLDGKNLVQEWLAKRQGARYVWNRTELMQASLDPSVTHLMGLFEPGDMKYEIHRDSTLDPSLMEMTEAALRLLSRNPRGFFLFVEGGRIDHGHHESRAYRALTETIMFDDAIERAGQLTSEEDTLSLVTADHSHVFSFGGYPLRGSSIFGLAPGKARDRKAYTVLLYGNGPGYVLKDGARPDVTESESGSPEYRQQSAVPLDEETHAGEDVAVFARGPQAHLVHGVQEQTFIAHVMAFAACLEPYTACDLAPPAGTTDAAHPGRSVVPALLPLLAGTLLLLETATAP
Sequence of Delta-type opioid receptor (P41143 whole entry): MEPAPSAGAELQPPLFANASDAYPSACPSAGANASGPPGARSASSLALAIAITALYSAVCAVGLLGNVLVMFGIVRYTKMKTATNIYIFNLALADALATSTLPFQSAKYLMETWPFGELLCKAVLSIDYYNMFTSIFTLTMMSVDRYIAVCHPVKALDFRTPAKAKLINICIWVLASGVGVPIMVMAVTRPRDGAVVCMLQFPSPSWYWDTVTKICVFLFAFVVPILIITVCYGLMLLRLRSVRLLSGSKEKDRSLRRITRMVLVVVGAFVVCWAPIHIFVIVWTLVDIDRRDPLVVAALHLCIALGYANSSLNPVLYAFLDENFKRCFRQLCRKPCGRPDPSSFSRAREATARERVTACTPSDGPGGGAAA

Cc1ccnc2c1n1cccc1c(=O)n2CC(=O)NCCCN1CCN(c2ccccc2)CC1
IC50 (Mu-type opioid receptor): 22.5 µM (inactive) | IC50 [1]: > 32 µM (inactive) | IC50 [2]: 4.95 µM (active) | IC50 [3]: 2.56 µM (active)

COc1ccc(S(=O)(=O)N2CCCCC2)cc1NC(=O)c1cnc(C)cn1
EC50 (T-cell): 0.558 µM (active)

CSc1nnc(NC(=O)c2cc(F)c(F)c(F)c2F)[nH]1
IC50 [4]: > 100 µM (not active) | IC50 [5]: > 100 µM (inactive) | IC50 [6]: > 100 µM (inactive)

O=C(Oc1ccc2c3c(c(=O)oc2c1)CCC3)c1ccco1
IC50 (Coagulation factor XII): 6.22 µM (active)
